Calls of active or inactive are those of the source.
Columns and labels:
[1] = molecular target: T1, Replicative DNA helicase DnaB (Mycobacterium tuberculosis, UniProt P9WMR3); assay: DnaB intein splicing inhibitors, dose response, biochemical, cell-free fluorescence (AID 449749); type: functional
T1 sequence (P9WMR3 whole entry): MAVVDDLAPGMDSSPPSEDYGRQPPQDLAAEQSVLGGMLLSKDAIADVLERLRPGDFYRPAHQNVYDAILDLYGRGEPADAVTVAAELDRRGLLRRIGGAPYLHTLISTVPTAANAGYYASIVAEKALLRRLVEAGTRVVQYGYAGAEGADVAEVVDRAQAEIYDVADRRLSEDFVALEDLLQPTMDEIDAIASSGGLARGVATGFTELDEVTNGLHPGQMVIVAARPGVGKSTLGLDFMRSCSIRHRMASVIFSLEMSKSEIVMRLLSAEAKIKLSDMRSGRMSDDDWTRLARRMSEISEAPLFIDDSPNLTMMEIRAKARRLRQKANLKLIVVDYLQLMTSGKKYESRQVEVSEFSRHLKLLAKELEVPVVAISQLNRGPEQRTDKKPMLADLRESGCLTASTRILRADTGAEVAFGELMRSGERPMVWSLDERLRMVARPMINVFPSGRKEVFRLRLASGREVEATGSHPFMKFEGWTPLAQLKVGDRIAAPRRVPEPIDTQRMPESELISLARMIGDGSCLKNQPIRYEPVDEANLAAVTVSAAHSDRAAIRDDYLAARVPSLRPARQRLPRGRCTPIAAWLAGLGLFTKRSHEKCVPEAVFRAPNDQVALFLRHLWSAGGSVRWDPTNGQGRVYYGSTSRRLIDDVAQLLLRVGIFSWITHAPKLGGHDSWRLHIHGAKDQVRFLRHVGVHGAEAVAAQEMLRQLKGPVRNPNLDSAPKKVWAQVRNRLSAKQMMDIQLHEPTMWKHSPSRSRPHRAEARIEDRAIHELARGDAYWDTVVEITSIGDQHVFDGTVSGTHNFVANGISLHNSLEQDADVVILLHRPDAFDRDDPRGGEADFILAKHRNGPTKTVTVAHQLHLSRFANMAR

Protein RecA = molecular target: T2, Protein RecA (Mycobacterium tuberculosis, UniProt P9WHJ3); assay: Fluorescence Cell-Free Homogeneous Dose Retest to Identify Inhibitors of RecA-Intein Splicing Activity. [Related pubchem assays (depositor defined):AID2097, AID2223, AID489010, AID492950]; type: functional
T2 sequence (P9WHJ3 whole entry): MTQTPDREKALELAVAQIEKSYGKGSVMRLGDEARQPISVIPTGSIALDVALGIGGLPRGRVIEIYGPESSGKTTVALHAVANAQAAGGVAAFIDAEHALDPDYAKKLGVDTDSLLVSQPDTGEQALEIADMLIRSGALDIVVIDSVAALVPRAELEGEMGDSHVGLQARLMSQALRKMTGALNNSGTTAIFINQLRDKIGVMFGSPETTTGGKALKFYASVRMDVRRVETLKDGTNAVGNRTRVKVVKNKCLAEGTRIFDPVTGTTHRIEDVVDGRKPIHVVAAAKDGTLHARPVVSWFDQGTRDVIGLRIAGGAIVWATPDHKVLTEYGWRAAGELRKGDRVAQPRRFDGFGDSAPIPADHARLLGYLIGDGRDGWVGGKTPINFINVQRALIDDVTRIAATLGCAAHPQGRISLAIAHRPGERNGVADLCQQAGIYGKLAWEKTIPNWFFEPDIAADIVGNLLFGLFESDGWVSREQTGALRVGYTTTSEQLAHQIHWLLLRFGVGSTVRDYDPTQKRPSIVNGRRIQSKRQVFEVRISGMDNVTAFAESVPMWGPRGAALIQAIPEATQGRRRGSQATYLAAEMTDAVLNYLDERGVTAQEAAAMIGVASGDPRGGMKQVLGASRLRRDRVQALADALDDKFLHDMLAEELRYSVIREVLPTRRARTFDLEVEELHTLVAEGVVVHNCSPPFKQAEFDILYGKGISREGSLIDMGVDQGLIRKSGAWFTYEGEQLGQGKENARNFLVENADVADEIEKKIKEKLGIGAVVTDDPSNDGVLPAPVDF

Protein skinhead-1 = molecular target: T3, Protein skinhead-1 (Caenorhabditis elegans, UniProt P34707); type: functional
T3 sequence (P34707 whole entry): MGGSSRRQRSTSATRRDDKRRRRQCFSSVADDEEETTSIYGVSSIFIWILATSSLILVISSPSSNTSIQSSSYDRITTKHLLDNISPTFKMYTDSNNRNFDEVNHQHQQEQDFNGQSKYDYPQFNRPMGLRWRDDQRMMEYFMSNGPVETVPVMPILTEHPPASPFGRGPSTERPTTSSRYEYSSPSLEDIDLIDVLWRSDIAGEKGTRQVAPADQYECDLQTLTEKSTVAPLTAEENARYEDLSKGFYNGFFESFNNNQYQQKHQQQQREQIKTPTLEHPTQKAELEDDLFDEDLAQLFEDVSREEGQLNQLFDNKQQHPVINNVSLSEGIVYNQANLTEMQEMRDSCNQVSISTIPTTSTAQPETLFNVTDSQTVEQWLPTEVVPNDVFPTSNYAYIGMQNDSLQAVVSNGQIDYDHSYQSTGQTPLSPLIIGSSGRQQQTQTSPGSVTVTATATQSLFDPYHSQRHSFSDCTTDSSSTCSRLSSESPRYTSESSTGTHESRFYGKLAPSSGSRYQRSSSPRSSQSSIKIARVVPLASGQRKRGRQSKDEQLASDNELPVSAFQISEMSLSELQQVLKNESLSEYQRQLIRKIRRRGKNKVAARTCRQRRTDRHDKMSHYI

[2] = molecular target: T4, Rac GTPase-activating protein 1 (Homo sapiens, UniProt Q9H0H5); assay: MgcRacGAP GTPase-activating activity inhibitors, confirmation, biochemical, ADP Hunter fluorescence, primary and confirmatory (AID 624330); type: functional
T4 sequence (Q9H0H5 whole entry): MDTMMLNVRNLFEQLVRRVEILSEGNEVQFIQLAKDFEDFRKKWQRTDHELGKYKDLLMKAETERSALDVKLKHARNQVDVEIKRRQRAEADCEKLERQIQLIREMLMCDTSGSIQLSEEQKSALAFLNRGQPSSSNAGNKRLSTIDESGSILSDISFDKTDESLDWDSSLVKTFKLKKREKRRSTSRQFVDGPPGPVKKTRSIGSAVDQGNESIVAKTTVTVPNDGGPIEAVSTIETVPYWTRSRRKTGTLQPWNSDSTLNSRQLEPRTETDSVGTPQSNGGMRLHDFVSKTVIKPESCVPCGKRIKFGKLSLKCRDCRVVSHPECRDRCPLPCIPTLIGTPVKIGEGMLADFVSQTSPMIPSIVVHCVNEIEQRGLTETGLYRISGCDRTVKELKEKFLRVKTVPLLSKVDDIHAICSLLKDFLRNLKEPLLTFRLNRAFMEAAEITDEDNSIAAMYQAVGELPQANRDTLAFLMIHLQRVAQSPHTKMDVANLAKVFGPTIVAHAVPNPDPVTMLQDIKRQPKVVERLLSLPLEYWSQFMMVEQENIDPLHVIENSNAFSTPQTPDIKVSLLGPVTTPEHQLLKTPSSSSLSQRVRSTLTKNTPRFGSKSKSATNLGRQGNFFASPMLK

[3] = molecular target: T5, Heat shock factor protein 1 (Mus musculus, UniProt P38532); assay: HSF1 potentiators in luciferase reporter cells, confirmation, cell-based, NIH3T3, luminescence, dose retest (AID 435004); type: functional;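 also: stress induced by proteasome inhibitor MG132 added 30 min after compound; luciferase reporter driven by HSF1 response element in NIH3T3 cells; actives raise luminescence as potentiators of the MG132 stress response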
T5 sequence (P38532 whole entry): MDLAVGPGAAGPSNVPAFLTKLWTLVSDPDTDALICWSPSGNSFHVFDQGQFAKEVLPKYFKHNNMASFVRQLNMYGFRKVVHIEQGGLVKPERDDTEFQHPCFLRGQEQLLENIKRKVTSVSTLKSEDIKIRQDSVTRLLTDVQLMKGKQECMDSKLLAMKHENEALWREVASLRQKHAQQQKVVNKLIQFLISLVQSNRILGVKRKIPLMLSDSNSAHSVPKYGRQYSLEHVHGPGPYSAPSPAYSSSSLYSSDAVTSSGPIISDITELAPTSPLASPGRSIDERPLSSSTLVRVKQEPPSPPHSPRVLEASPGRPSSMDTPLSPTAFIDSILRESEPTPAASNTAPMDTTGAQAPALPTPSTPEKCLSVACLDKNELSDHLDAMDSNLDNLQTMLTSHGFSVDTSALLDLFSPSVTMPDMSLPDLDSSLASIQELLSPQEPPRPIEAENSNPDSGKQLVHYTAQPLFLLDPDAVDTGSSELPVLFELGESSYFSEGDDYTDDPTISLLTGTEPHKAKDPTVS

Large T antigen = Large T antigen (Simian virus 40, UniProt P03070); type: functional, Betapolyomavirus macacae;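 also: Confirmatory-stage PubChem screen for compounds that inhibit SV40 T antigen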
[4] = molecular target: T6, Corticotropin-releasing factor receptor 2/Corticotropin-releasing factor-binding protein (Homo sapiens, UniProt P24387+Q13324); assay: activators of CRF receptor 2 with binding protein – uHTS hits, confirmation (AID 602473); type: functional; conditions: read-out: EC50_Mean
T6 sequence (Q13324 whole entry): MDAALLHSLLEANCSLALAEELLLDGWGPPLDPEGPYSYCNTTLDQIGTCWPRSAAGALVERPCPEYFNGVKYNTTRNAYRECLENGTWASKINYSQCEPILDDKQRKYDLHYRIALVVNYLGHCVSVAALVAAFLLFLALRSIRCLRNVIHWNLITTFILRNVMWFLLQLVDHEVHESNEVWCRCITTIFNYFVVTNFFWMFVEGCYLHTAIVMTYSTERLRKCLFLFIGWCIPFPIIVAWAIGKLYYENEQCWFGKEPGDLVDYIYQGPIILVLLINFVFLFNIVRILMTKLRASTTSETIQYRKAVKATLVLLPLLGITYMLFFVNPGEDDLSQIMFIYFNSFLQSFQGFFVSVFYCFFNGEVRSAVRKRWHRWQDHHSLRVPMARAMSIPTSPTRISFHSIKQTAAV
T6 sequence (P24387 whole entry): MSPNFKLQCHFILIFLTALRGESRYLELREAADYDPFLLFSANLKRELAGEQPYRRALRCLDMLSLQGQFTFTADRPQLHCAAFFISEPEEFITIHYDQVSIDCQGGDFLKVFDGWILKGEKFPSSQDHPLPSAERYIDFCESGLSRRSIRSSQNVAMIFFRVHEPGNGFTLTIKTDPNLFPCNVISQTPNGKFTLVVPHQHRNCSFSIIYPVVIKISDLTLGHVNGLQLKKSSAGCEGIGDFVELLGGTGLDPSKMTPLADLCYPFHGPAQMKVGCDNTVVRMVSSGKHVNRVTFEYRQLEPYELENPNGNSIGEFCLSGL

[5] = molecular target: FAD-linked sulfhydryl oxidase ALR (Homo sapiens, UniProt P55789); assay: inhibitors of human ALR sulfhydryl oxidase, dose response, biochemical, H2O2 detection, luminescence, cherry-pick (AID 493248)
Sequence of FAD-linked sulfhydryl oxidase ALR (P55789 whole entry): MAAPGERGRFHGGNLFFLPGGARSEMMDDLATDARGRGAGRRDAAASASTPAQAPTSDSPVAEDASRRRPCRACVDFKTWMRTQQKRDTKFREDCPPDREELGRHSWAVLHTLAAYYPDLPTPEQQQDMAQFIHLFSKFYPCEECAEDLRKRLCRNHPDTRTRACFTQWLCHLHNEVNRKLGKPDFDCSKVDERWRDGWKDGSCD

Sequence of Large T antigen (P03070 whole entry): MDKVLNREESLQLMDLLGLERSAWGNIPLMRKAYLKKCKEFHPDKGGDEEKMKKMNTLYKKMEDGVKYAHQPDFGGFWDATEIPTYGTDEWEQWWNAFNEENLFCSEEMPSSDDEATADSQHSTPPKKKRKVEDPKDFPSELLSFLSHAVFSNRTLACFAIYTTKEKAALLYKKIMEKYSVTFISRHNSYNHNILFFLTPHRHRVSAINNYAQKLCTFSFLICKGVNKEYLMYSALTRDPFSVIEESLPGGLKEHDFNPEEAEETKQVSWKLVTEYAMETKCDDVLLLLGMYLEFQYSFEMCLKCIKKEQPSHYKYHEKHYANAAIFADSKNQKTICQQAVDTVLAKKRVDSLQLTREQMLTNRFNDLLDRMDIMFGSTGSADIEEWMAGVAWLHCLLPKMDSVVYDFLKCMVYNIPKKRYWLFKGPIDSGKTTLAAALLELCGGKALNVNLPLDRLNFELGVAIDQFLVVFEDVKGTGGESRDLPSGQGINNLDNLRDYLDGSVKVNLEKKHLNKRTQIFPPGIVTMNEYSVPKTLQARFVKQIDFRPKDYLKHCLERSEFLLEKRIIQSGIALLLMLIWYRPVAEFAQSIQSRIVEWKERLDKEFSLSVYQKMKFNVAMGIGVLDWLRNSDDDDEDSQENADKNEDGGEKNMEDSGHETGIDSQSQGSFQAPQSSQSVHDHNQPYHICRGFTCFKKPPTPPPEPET

| Compound | AC50 [1] | EC50 (Protein RecA) | IC50 [2] | also measured |
| --- | --- | --- | --- | --- |
| COc1ccc(OC)c(C(c2c(C)n[nH]c2O)c2c(C)n[nH]c2O)c1 | 0.296 µM (active) | 0.211 µM (active) |  |  |
| Cc1c(-c2csc(N)n2)c2ccccc2n1C |  |  |  | IC50 (Protein skinhead-1): > 100 µM (inactive) |
| NC(CSS(=O)(=O)O)=NCCC12CC3CC(CC(O)(C3)C1)C2 |  |  | 142 µM (active) |  |
| NSc1nc(N)c2nc(-c3ccccc3)c(-c3ccccc3)nc2n1 |  |  | 99.2 µM (active) |  |
| CC(C)(C)NC(=O)C(c1cccs1)N(CC1CCCO1)C(=O)c1ccc(-c2ccccc2)[nH]1 (centres undefined) | 37.9 µM (active) | 169 µM (active) |  |  |
| CN(C)c1ccc(NC(=O)c2ccncc2)c2ccccc12 | 66.5 µM (active) | 45.4 µM (active) |  |  |
| COc1ccc(CN2C(=O)NC(=O)/C(=C\NNC(=O)c3ccccc3O)C2=O)cc1 | 2.69 µM (active) | 32.2 µM (active) |  |  |
| CCOCCn1c(COc2ccccc2)nc2ccccc21 |  |  |  | IC50 (Protein skinhead-1): > 100 µM (inactive) |
| Cc1nn(-c2cccc(Cl)c2)c2c1C(c1ccncc1)C(C#N)=C(N)O2 (centres undefined) | 9.1 µM (active) | 7.71 µM (active) |  | EC50 [3]: > 260 µM (inactive) |
| Cc1ccc2sc(NC(=O)c3cccc(N4C(=O)CCC4=O)c3)nc2c1C |  |  |  | IC50 (Protein skinhead-1): > 100 µM (inactive) |
| CC(NS(=O)(=O)c1ccc(Cl)cc1)C(=O)OCC(=O)Nc1ccc(N(C)C)cc1 (centres undefined) |  |  | 65.1 µM (active) |  |
| O=C(c1c[nH]c(C(=O)C(Cl)(Cl)Cl)c1)c1ccccc1F | 12.6 µM (active) | 7.39 µM (active) |  |  |
| FC(F)(F)c1ccc(-c2csc(-c3ccno3)n2)cc1 |  |  |  | IC50 (Protein skinhead-1): 23.1 µM (active) |
| COc1ccc(NC2CCCN(C(=O)c3ccc(C)c(N4CCNC4=O)c3)C2)cc1 (centres undefined) |  |  | 129 µM (active) |  |
| COc1ccc(CN2CCN(C(=O)CC(C)C)CC2)cc1OC |  |  | 161 µM (active) |  |
| O=C(NC1C(=O)NNC1c1ccccc1)c1ccccc1 (centres undefined) | 8.8 µM (active) | 4.83 µM (active) |  | EC50 [3]: 246 µM (active) |
| COC(=O)CCSc1cc(NCCOC(C)=O)c([N+](=O)[O-])c2nonc12 | 37.5 µM (active) | 4.63 µM (active) |  |  |
| C#Cc1ccc2c(c1)COc1c3ccccc3nn1-2 |  |  |  | IC50 (Protein skinhead-1): > 100 µM (inactive) |
| CCOC(=O)c1sc(NC(=O)CN2CC(C)OC(C)C2)nc1C (centres undefined) |  |  |  | IC50 (Protein skinhead-1): > 100 µM (inactive) |
| Cc1ccc(C/N=C/c2[nH]c3ccc(Br)c(Cl)c3c2O)cc1 | > 380 µM (inactive) | 1.43 µM (active) |  |  |
| COc1cc(/C=N/NC(=O)c2nc(C)cc(C)n2)ccc1O |  |  | 35.3 µM (active) | IC50 (Large T antigen): 39.5 µM (active); EC50 [4]: > 53 µM (inactive) |
| O=C(N/N=C/c1ccc(N2CCOCC2)s1)c1ccc(O)cc1 |  |  | 23.5 µM (active) |  |
| CN(C)c1cccc(O)c1 |  |  |  | IC50 (Protein skinhead-1): > 100 µM (inactive) |
| COc1cc(/C=N/NC(=O)CCn2nnc3ccccc32)ccc1O |  |  | 58.7 µM (active) | IC50 (Large T antigen): 8.58 µM (active); AC50 [5]: 0.236 µM (active) |

Source: ChEMBL document CHEMBL1201862, “PubChem BioAssay data set” (2004)
